Assay results reported in publication PMC2932756 (Chemico-biological interactions, 2010).

Columns and labels:
isolated rat hepatocytes = details: trypan blue exclusion, 2 h incubation; cited from earlier work
tyrosinase = test: Tyrosinase mediated GSH depletion assay; format: biochemical, Mushroom; details: 100 μM phenolic agent, 200 μM GSH, tyrosinase/O2, 37 °C, 2 h
SK-MEL-28 melanoma cells = test: MTT cell viability assay, IC50; format: cell-based, human; details: MTT assay, 48 h incubation
[1] = Partition coefficient, distribution coefficient and water solubility
[2] = no reference given; cited from earlier work
[3] = system: CYP2E1 induced rat liver microsomes; details: 100 μM, pH 7.4

Compound | LD50 (2 h) rat hepatocytes (isolated rat hepatocytes) | Tyrosinase GSH depletion (2 h) (tyrosinase) | LD50 (day 2) SK-MEL-28 (SK-MEL-28 melanoma cells) | water solubility relative to CAPE ([1]; from LogW) | ionized at physiological pH ([1]; pH 7.4) | pKa value of the carboxylic moiety [2] | Microsomes GSH depletion (2 h) [3]
ferulic acid [FA] | 25 mM | 46±2% | 2 mM |  |  |  | 
O=C(O)C=Cc1ccc(O)cc1 [4-HCA, 4-hydroxycinnamic acid] |  | 16±3% | 4.4 mM |  |  |  | 
O=C(/C=C/c1ccc(O)c(O)c1)O[C@@H]1C[C@](O)(C(=O)O)C[C@@H](O)[C@H]1O [CGA, chlorogenic acid] |  | 200±5% | >5 mM |  |  |  | 
O=C(O)/C=C/c1ccc(O)c(O)c1 [CA, caffeic acid] |  | 200±6% | 2.3 mM | 45 fold | more than 99% | 4.62 | 
O=C(O)CCc1ccc(O)c(O)c1 [DHCA, dihydrocaffeic acid] | 6 mM | 200±4% | 2.2 mM |  |  |  | 
O=C(O)CCc1ccc(O)cc1 [4-HPP, 4-hydroxypropionic acid] |  | 42±2% | 1.5 mM |  |  |  | 
O=C(O)CCc1ccccc1 [DHCinA, Dihydrocinnamic acid] |  | 32±3% | 5 mM |  |  |  | 
O=C(O)/C=C/c1ccccc1 [CinA, cinnamic acid] |  | 40±7% |  |  |  |  | 110±7%
